We go through twelve compounds from ChEMBL document CHEMBL1201862, “PubChem BioAssay data set” (2004).

Common to all, as to experiment: NCI tumour cell line growth inhibition, 48 h
The subject of assay [1] is OVCAR-3.
The test system of assay [2] is MDA-MB-231.
For assay [3], the system named is OVCAR-5.
Assay [4] concerns SK-MEL-28.
Assay [5] concerns HCT-15.
Assay [6] concerns MDA-N.
In assay [7] the test system is UACC-62.
In assay [8] the test system is EKVX.
The subject of assay [9] is PC-3.
The subject of assay [10] is HCT-116.
The subject of assay [11] is SNB-19.
Assay [12] concerns U-251.
Assay [13] relates to UO-31.
Assay [14] relates to Malme-3M.
Assay [15] relates to TK-10.
In assay [16] the test system is ACHN.
In assay [17] the test system is UACC-257.
The subject of assay [18] is NCI-H522.
The test system of assay [19] is SNB-75.

Molecules are shown by their SMILES.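 1) Cells in 96-well plates. 2) Compound, 48 h, 5 concentrations. 3) Linear interpolation between surrounding doses. 4) Unreached endpoint = highest concentration. Abbreviation: GI50, concentration required for 50% inhibition of growth.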 Calls of active or inactive are those of the source. Rule as the data show it: active = GI50 up to about 1.1 µM and inactive = higher.

On to `C(=N\Nc1nnc(-c2nnc(N/N=C/c3ccccc3)o2)o1)/c1ccccc1`, for which the GI50 is > 10 µM (inactive) in assay [1]; > 10 µM (inactive) in assay [2]; > 10 µM (inactive) in assay [3]; > 10 µM (inactive) in assay [4]; more than 10 µM in [5]; > 10 µM (inactive) in [6]. Also, the GI50 in [7], in assay [8], in assay [9], in [10], in assay [11] and in assay [12] was > 10 µM (inactive) throughout. For the same compound, the GI50 in [13], in [14], in assay [15], in assay [16] and in assay [17] was > 10 µM (inactive) each time.

With `COc1ccc(OC)c(NC(=O)c2c(Cl)c(Cl)c(Cl)c(Cl)c2-c2nc3ccccc3[nH]2)c1`, the GI50 in assay [1] is > 100 µM (inactive); in assay [3], > 100 µM (inactive); in [4], > 100 µM (inactive); in [5] it was more than 100 µM; in [6], > 100 µM (inactive); in assay [18] it was > 100 µM (inactive). Moreover, the GI50 in assay [7], in [8], in assay [9], in assay [10], in assay [11] and in assay [13] was > 100 µM (inactive) each time. Also, the GI50 in assay [14], in [19], in assay [16] and in [17] was > 100 µM (inactive) in each case.

In the case of `Cc1cc(C)n(CN(CCCCO)Cn2nc(C)cc2C)n1`, the GI50 is 27.9 µM (inactive) in assay [1]; 29.9 µM (inactive) in assay [2]; 23.2 µM (inactive) in assay [3]; 17.7 µM (inactive) in [4]; 17.5 µM in [5]; 17.5 µM (inactive) in [6]. The GI50 is 23.8 µM (inactive) in [18]; 19.1 µM (inactive) in assay [7]; 35.3 µM (inactive) in assay [8]; 20.2 µM (inactive) in assay [9]; 20 µM (inactive) in [10]; 57.1 µM (inactive) in assay [11]. Further, the GI50 was 22.4 µM (inactive) in assay [12]; 27.7 µM (inactive) in assay [13]; 22.9 µM (inactive) in assay [14]; 73.8 µM (inactive) in assay [15]; 17.5 µM (inactive) in [16]; 25.5 µM (inactive) in [17].

`CSc1nc(NC2CC2)c2c(n1)Sc1nc3ccccc3n1N=C2`: the GI50 was 17.3 µM (inactive) in assay [1]; 17.8 µM (inactive) in assay [2]; 37.2 µM (inactive) in [3]; > 100 µM (inactive) in [4]; 28.4 µM in assay [5]; 40.2 µM (inactive) in assay [6]. Besides, the GI50 was 16.9 µM (inactive) in assay [18]; 17.9 µM (inactive) in assay [7]; 24.2 µM (inactive) in [8]; 29.5 µM (inactive) in assay [9]; 9.73 µM (inactive) in [10]; 34.4 µM (inactive) in [11]. Further, the GI50 in assay [12] is 20 µM (inactive); in assay [13] it was 16.5 µM (inactive); in [14], 16.7 µM (inactive); in assay [15], 25.1 µM (inactive); in [16] it was 11 µM (inactive); in assay [17], 41.3 µM (inactive).

As to `COc1ccc(C(O)c2nccn2C)c(OC)c1` (stereo not drawn), the GI50 was > 100 µM (inactive) in [1]; > 100 µM (inactive) in [3]; > 100 µM (inactive) in assay [4]; more than 100 µM in [5]; > 100 µM (inactive) in assay [6]; > 100 µM (inactive) in [18]. The GI50 in assay [7], in assay [8], in [9], in [10], in assay [11] and in assay [12] was > 100 µM (inactive) each time. The GI50 in [13] is > 100 µM (inactive); in assay [14], > 100 µM (inactive); in assay [19], 29.6 µM (inactive); in assay [15], > 100 µM (inactive); in assay [16] it was > 100 µM (inactive); in [17], > 100 µM (inactive).

In the case of `Cc1ccc(S(=O)(=O)N/N=C2/C(=O)Nc3c(Cl)cc(Cl)cc32)cc1`, the GI50 in [1] was 60.3 µM (inactive); in assay [2], > 100 µM (inactive); in assay [3], > 100 µM (inactive); in assay [4], > 100 µM (inactive); in assay [5] it was 68.9 µM; in assay [6], 68.9 µM (inactive). The GI50 in assay [7] was 62.5 µM (inactive); in assay [8] it was 5.52 µM (inactive); in assay [9], 78.3 µM (inactive); in assay [10], 44.3 µM (inactive); in assay [11], > 100 µM (inactive); in [12], 58.1 µM (inactive). In addition, the GI50 in assay [13] is 41.6 µM (inactive); in [14], 91.4 µM (inactive); in assay [15], 79.1 µM (inactive); in [16] it was > 100 µM (inactive); in assay [17], > 100 µM (inactive).

Take `Cc1nnc2n1N=C(c1ccccc1)/C(=C/c1ccc(-c3ccc(Cl)cc3)o1)S2`: the GI50 was 10.5 µM (inactive) in assay [1]; 15.1 µM (inactive) in assay [2]; 20.6 µM (inactive) in [3]; 8.53 µM in assay [5]; 11.6 µM (inactive) in assay [6]; 10.6 µM (inactive) in [18]. For the same compound, the GI50 is 12.4 µM (inactive) in [7]; 20 µM (inactive) in [8]; 11.9 µM (inactive) in assay [9]; 12.2 µM (inactive) in assay [10]; 16.6 µM (inactive) in assay [11]; 12.1 µM (inactive) in assay [12]. For the same compound, the GI50 is 12.8 µM (inactive) in [13]; 17.3 µM (inactive) in assay [14]; 13.4 µM (inactive) in assay [15]; 13.5 µM (inactive) in assay [16]; 16.6 µM (inactive) in assay [17].

Regarding `CCCCN/N=N/c1cn(C2OC(CO)C(O)C2O)c(=O)[nH]c1=O` (stereo not drawn), the GI50 in assay [1] was > 100 µM (inactive); in [2], > 100 µM (inactive); in [3] it was > 100 µM (inactive); in assay [4], > 100 µM (inactive); in assay [5] it was more than 100 µM; in assay [6], > 100 µM (inactive). Further, the GI50 in [18], in assay [7], in assay [8], in assay [9], in assay [10] and in assay [11] was > 100 µM (inactive) each time. In addition, the GI50 in [14], in assay [15], in assay [16] and in assay [17] was > 100 µM (inactive) in each case.

Consider `CCN1C(=O)C(=C/C=C/C=C2/N(C)c3ccccc3C2(C)C)C(=O)N(CC)C1=S`, for which the GI50 was 36.4 µM (inactive) in [1]; > 100 µM (inactive) in [2]; > 100 µM (inactive) in [3]; more than 100 µM in assay [5]; > 100 µM (inactive) in [6]; > 100 µM (inactive) in assay [18]. For the same compound, the GI50 in assay [7], in [8], in assay [10], in [11], in [13] and in assay [14] was > 100 µM (inactive) in each case. Also, the GI50 in assay [19] was > 100 µM (inactive); in [15], > 100 µM (inactive); in assay [16], 53.6 µM (inactive); in [17], 56.1 µM (inactive).

With `O=C(C=P(c1ccccc1)(c1ccccc1)c1ccccc1)c1ccc(-c2ccc(F)cc2F)cc1`, the GI50 in [1] was 1.95 µM (inactive); in assay [2], 2.1 µM (inactive); in assay [3], 2.96 µM (inactive); in assay [4], 2.95 µM (inactive); in assay [5] it was 2.29 µM; in [6], 2.78 µM (inactive). In addition, the GI50 in assay [7] is 1.85 µM (inactive); in [8], 3.17 µM (inactive); in assay [9], 3.38 µM (inactive); in assay [10], 2.87 µM (inactive); in [11] it was 4.73 µM (inactive); in assay [12], 3.41 µM (inactive). Also, the GI50 in assay [13] was 1.77 µM (inactive); in [14] it was 2.72 µM (inactive); in assay [15], 2.2 µM (inactive); in assay [16], 2.44 µM (inactive); in [17], 2.72 µM (inactive).

With `Cc1ccc(S(=O)(=O)N2CCCSCCSCCCN(S(=O)(=O)c3ccc(C)cc3)CC2)cc1`, the GI50 in [1] is > 100 µM (inactive); in assay [2] it was > 100 µM (inactive); in assay [3] it was > 100 µM (inactive); in assay [4] it was > 100 µM (inactive); in [5], more than 100 µM; in assay [6], > 100 µM (inactive). The GI50 in assay [7], in assay [8], in assay [10], in [11], in assay [12] and in [13] was > 100 µM (inactive) throughout. The GI50 in assay [19], in assay [15], in [16] and in assay [17] was > 100 µM (inactive) throughout.

`NC(=O)NC1C(c2ccccc2)=C1c1ccccc1`: the GI50 in [1] is 28.9 µM (inactive); in [2], 12.6 µM (inactive); in assay [3], 23.2 µM (inactive); in assay [4] it was 17.1 µM (inactive); in assay [5], 13.6 µM; in assay [6], 14.5 µM (inactive). In addition, the GI50 in assay [7] is 9.23 µM (inactive); in assay [8] it was 26.8 µM (inactive); in assay [9] it was 17.1 µM (inactive); in assay [10] it was 15.7 µM (inactive); in [11], 34.8 µM (inactive); in [12] it was 13.9 µM (inactive). In addition, the GI50 is 13.6 µM (inactive) in assay [13]; 21.1 µM (inactive) in assay [14]; 18 µM (inactive) in assay [15]; 10.6 µM (inactive) in assay [16]; 18.6 µM (inactive) in [17].
